PubChem BioAssay AID1745844 (Carcinogenic Potency Database (CPDB), 2022)
Calls of active or inactive are those of the source. No rule for the calls is given here.

System: rodent lifetime carcinogenesis bioassay, tumor incidence TD50
Experiment: chronic cancer bioassays in animals – CPDB, compiled studies (AID 1745844)

For O=S(=O)(O)O, which TD50 (hamster, strain Syrian Golden, females, in drinking water, site: cecum, lesion: one or several types, types not named, dosed 108 weeks, study length 108 weeks) is on record?
Its TD50 is 115 mg/kg/day (inactive).

What about the TD50 (hamster, strain Syrian Golden, females, in drinking water, site: thyroid gland, lesion: adenoma, dosed 108 weeks, study length 108 weeks) of the same molecule?
The TD50 was 124 mg/kg/day (inactive).

What about the TD50 (hamster, strain Syrian Golden, males, in drinking water, site: cecum, lesion: one or several types, types not named, dosed 119 weeks, study length 119 weeks) of the same molecule?
Its TD50 is 136 mg/kg/day (inactive).

And the carcinogen call (hamster, strain Syrian Golden, males, in drinking water, site: liver, lesion: hemangioma, dosed 119 weeks, study length 119 weeks)?
The carcinogen call was “negative (inactive)”.

And the TD50 (hamster, strain Syrian Golden, males, in drinking water, site: liver, lesion: hepatocellular adenoma, dosed 91 weeks, study length 91 weeks)?
The TD50 was 87.5 mg/kg/day.

And the TD50 (hamster, strain Syrian Golden, males, in drinking water, site: liver, lesion: hepatocellular adenoma, dosed 104 weeks, study length 104 weeks)?
Its TD50 is 2590 mg/kg/day.

And the TD50 (hamster, strain Syrian Golden, males, in drinking water, site: liver, lesion: hepatocellular carcinoma, dosed 91 weeks, study length 91 weeks)?
The TD50 was 464 mg/kg/day.

And the TD50 (hamster, strain Syrian Golden, males, in drinking water, site: liver, lesion: hepatocellular carcinoma, dosed 104 weeks, study length 104 weeks)?
The TD50 was 181 mg/kg/day.

What about the TD50 (hamster, strain Syrian Golden, males, in drinking water, site: liver, lesion: histiocytoma, malignant, dosed 104 weeks, study length 104 weeks) of the same molecule?
The TD50 was 2580 mg/kg/day.

And the TD50 (hamster, strain Syrian Golden, males, in drinking water, site: liver, lesion: reticulum-cell sarcoma, dosed 104 weeks, study length 104 weeks)?
Its TD50 is 2590 mg/kg/day.

And the TD50 (hamster, strain Syrian Golden, males, in drinking water, site: liver, lesion: several types, types named in the paper, dosed 91 weeks, study length 91 weeks)?
The TD50 was 87.5 mg/kg/day.

And the carcinogen call (mouse, strain AKR, females, in drinking water, site: liver, lesion: one or several types, types not named, dosed 69 weeks, study length 69 weeks)?
Its carcinogen call is “negative (inactive)”.

What about the carcinogen call (mouse, strain AKR, females, in drinking water, site: lung, lesion: one or several types, types not named, dosed 69 weeks, study length 69 weeks) of the same molecule?
The carcinogen call was “negative (inactive)”.

And the carcinogen call (mouse, strain AKR, males, in drinking water, site: liver, lesion: hemangioma, dosed 69 weeks, study length 69 weeks)?
The carcinogen call was “negative (inactive)”.

And the carcinogen call (mouse, strain AKR, males, in drinking water, site: lung, lesion: adenoma, dosed 69 weeks, study length 69 weeks)?
Its carcinogen call is “negative (inactive)”.

And the TD50 (mouse, strain C3H (MTV+), females, in drinking water, site: lung, lesion: adenoma, dosed 92 weeks, study length 92 weeks)?
Its TD50 is 109 mg/kg/day.

And the TD50 (mouse, strain CBA/Cb/Se, females, by gavage, site: liver, lesion: hepatoma, dosed 36 weeks, study length 74 weeks)?
Its TD50 is 6.27 mg/kg/day.

And the TD50 (mouse, strain CBA/Cb/Se, females, by gavage, site: lung, lesion: several types, types named in the paper, dosed 36 weeks, study length 74 weeks)?
Its TD50 is 3.35 mg/kg/day.

What about the TD50 (mouse, strain CBA/Cb/Se, males, by gavage, site: liver, lesion: hepatoma, dosed 36 weeks, study length 84 weeks) of the same molecule?
Its TD50 is 8.43 mg/kg/day.

And the TD50 (mouse, strain CBA/Cb/Se, males, by gavage, site: lung, lesion: several types, types named in the paper, dosed 36 weeks, study length 84 weeks)?
Its TD50 is 5.1 mg/kg/day.

What about the carcinogen call (mouse, strain ICRC x C3H (Jax), females, by gavage, site: liver, lesion: one or several types, types not named, dosed 73 weeks, study length 73 weeks) of the same molecule?
The carcinogen call was “negative (inactive)”.

And the TD50 (mouse, strain ICRC x C3H (Jax), females, by gavage, site: lung, lesion: adenocarcinoma, dosed 73 weeks, study length 73 weeks)?
Its TD50 is 10.3 mg/kg/day.

What about the carcinogen call (mouse, strain ICRC x C3H (Jax), males, by gavage, site: liver, lesion: one or several types, types not named, dosed 73 weeks, study length 73 weeks) of the same molecule?
The carcinogen call was “negative (inactive)”.

What about the TD50 (mouse, strain ICRC x C3H (Jax), males, by gavage, site: lung, lesion: adenocarcinoma, dosed 73 weeks, study length 73 weeks) of the same molecule?
Its TD50 is 79.5 mg/kg/day.

And the carcinogen call (mouse, strain Swiss albino, females, in drinking water, site: liver, lesion: hemangioma, dosed 95 weeks, study length 95 weeks)?
Its carcinogen call is “negative (inactive)”.

And the TD50 (mouse, strain Swiss albino, females, in drinking water, site: lung, lesion: adenocarcinoma, dosed 95 weeks, study length 95 weeks)?
The TD50 was 146 mg/kg/day.

And the TD50 (mouse, strain Swiss albino, females, in drinking water, site: lung, lesion: adenoma, dosed 95 weeks, study length 95 weeks)?
The TD50 was 26.7 mg/kg/day.

What about the TD50 (mouse, strain Swiss albino, females, in drinking water, site: lung, lesion: several types, types named in the paper, dosed 95 weeks, study length 95 weeks) of the same molecule?
Its TD50 is 23.8 mg/kg/day.

And the TD50 (mouse, strain Swiss albino, males, in drinking water, site: liver, lesion: several types, types named in the paper, dosed 94 weeks, study length 94 weeks)?
Its TD50 is 78.4 mg/kg/day.

And the TD50 (mouse, strain Swiss albino, males, in drinking water, site: lung, lesion: adenocarcinoma, dosed 94 weeks, study length 94 weeks)?
The TD50 was 74.2 mg/kg/day.

And the TD50 (mouse, strain Swiss albino, males, in drinking water, site: lung, lesion: adenoma, dosed 94 weeks, study length 94 weeks)?
The TD50 was 23.1 mg/kg/day.

And the TD50 (mouse, strain Swiss albino, males, in drinking water, site: lung, lesion: several types, types named in the paper, dosed 94 weeks, study length 94 weeks)?
The TD50 was 18.7 mg/kg/day.

And the TD50 (mouse, strain Swiss, both sexes, by gavage, site: lung, lesion: adenocarcinoma, dosed 95 weeks, study length 95 weeks)?
Its TD50 is 9.81 mg/kg/day.

What about the TD50 (mouse, strain Swiss, both sexes, by gavage, site: lung, lesion: one or several types, types not named, dosed 54 weeks, study length 54 weeks) of the same molecule?
The TD50 was 3.92 mg/kg/day.

What about the TD50 (rat, strain Cb/Sc, females, by gavage, site: lung, lesion: several types, types named in the paper, dosed 68 weeks, study length 94 weeks) of the same molecule?
The TD50 was 42.4 mg/kg/day.

What about the TD50 (rat, strain Cb/Sc, males, by gavage, site: liver, lesion: several types, types named in the paper, dosed 68 weeks, study length 94 weeks) of the same molecule?
Its TD50 is 39.4 mg/kg/day.

And the TD50 (rat, strain Cb/Sc, males, by gavage, site: lung, lesion: several types, types named in the paper, dosed 68 weeks, study length 94 weeks)?
Its TD50 is 60.1 mg/kg/day.

What does the source list for O=C(O)c1ccccc1?
carcinogen call (mouse, strain Swiss albino, females, in drinking water, site: liver, lesion: one or several types, types not named, dosed 134 weeks, study length 134 weeks): negative (inactive); carcinogen call (mouse, strain Swiss albino, females, in drinking water, site: lung, lesion: one or several types, types not named, dosed 134 weeks, study length 134 weeks): negative (inactive); TD50 (mouse, strain Swiss albino, males, in drinking water, site: liver, lesion: hepatoma, dosed 113 weeks, study length 113 weeks): 133000 mg/kg/day (inactive); carcinogen call (mouse, strain Swiss albino, males, in drinking water, site: lung, lesion: one or several types, types not named, dosed 113 weeks, study length 113 weeks): negative (inactive); TD50 (rat, strain Fischer 344, females, in feed, site: any site (literature study), lesion: malignant tumor, dosed 104 weeks, study length 108 weeks): 104000 mg/kg/day (inactive); TD50 (rat, strain Fischer 344, females, in feed, site: any site (literature study), lesion: several types, types named in the paper, dosed 104 weeks, study length 108 weeks): 24900 mg/kg/day (inactive); carcinogen call (rat, strain Fischer 344, males, in feed, site: any site (literature study), lesion: malignant tumor, dosed 104 weeks, study length 108 weeks): negative (inactive); carcinogen call (rat, strain Fischer 344, males, in feed, site: any site (literature study), lesion: several types, types named in the paper, dosed 104 weeks, study length 108 weeks): negative (inactive)
